Results from PubChem BioAssay AID1259338 (Broad Institute, 2017).
The source made the active and inactive calls.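 Rule for the calls: active = compounds lowering the signal with a fitted AC50 at or below a set concentration limit; inconclusive = flat curve with 30 to 70% inhibition, or a poor fit; inactive = the rest.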

Target: Caspase recruitment domain-containing protein 9 (Homo sapiens) + E3 ubiquitin-protein ligase TRIM62 (Homo sapiens) (UniProt Q9H257+Q9BVG3)
Experiment: disruptors of CARD9-TRIM62 binding, dose response, cell lysate, HEK293FT lysates, Luminex bead readout (AID 1259338); for activity change, negative = inhibition: reference of the scale not given here
Settings: Luminex bead PPI, MFI

Chain of Caspase recruitment domain-containing protein 9 (Homo sapiens) + E3 ubiquitin-protein ligase TRIM62 (Homo sapiens) (Q9BVG3 whole entry, looked up, the tested form may be a part): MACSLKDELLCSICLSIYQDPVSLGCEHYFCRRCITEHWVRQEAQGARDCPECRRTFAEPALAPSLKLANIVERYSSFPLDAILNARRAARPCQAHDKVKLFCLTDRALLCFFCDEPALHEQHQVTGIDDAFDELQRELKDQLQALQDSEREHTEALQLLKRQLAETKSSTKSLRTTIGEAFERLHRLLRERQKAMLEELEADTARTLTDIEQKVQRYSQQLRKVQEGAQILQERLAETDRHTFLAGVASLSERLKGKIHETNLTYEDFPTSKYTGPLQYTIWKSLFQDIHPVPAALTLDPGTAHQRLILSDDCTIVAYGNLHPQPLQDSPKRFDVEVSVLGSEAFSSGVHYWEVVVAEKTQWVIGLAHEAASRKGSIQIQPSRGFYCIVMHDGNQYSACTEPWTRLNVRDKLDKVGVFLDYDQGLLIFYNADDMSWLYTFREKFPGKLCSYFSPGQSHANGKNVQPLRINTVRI
Chain of Caspase recruitment domain-containing protein 9 (Homo sapiens) + E3 ubiquitin-protein ligase TRIM62 (Homo sapiens) (Q9H257 whole entry, looked up, the tested form may be a part): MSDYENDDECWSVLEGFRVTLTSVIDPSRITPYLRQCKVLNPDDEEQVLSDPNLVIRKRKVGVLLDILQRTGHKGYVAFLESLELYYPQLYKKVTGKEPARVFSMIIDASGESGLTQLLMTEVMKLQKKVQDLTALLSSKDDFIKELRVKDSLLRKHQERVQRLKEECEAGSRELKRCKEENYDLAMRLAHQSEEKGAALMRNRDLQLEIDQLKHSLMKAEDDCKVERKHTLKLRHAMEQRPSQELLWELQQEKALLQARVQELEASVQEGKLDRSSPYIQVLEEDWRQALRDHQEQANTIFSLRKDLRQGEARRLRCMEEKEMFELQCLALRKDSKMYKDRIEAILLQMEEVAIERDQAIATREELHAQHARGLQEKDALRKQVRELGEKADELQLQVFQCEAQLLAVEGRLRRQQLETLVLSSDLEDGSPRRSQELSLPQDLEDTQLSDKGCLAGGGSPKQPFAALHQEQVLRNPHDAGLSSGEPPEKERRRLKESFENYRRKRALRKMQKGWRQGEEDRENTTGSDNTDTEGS

Row | Structure (SMILES) | AC50 | activity change, negative = inhibition (at 80 µM (top of the series)) | also measured
1 | Cc1ccc(N2NC(c3ccc(Br)cc3)=CCC2=O)cc1 | 50.9 µM |  | 
2 | CN1C(=O)C(c2ccccc2[N+](=O)[O-])C(=O)c2ccccc21 (stereo not given) |  | inactive | 
3 | NC(=O)C1(N2CCCCC2)CCN(c2ncc(NC(=O)c3ccccc3)cc2C(=O)O)CC1 | 3.25 µM |  | 
4 | NC(=O)C1(N2CCCCC2)CCN(c2ncc(NC(=O)c3ccccc3F)cc2C(=O)O)CC1 | 18 µM |  | 
5 | Cc1ccc(S(=O)(=O)Nc2ccc3c(c2)C(=O)N([C@H](C)CO)C[C@H](C)[C@@H](CN(C)C(=O)C2CCCCC2)OCCCC[C@H](C)O3)cc1 | > 160 µM (inactive) |  | 
6 | COc1ccc(NC(=O)CN(C)C(=O)c2cc(-c3ccco3)nc3ccccc23)cc1 | 78.2 µM |  | 
7 | CC(=O)c1sc2nc(-c3ccco3)ccc2c1N |  | inactive | 
8 | O=C(Nc1ccc2oc(-c3ccncc3)nc2c1)c1ccc2c(c1)OCO2 | 41.8 µM |  | 
9 | C[C@H](CO)N1C[C@H](C)[C@@H](CN(C)CC2CCCCC2)OCCCC[C@H](C)Oc2ccc(NS(=O)(=O)c3cccs3)cc2C1=O |  | inactive | 
10 | C[C@H](CO)N1C[C@H](C)[C@@H](CN(C)C(=O)C2CCCCC2)OCCCC[C@H](C)Oc2ccc(NS(=O)(=O)c3cccs3)cc2C1=O |  | inactive | 
11 | O=C(NC(Sc1ncccn1)C(=O)c1ccccc1)c1ccccc1 (stereo not given) |  | inactive | 
12 | O=C(NCc1ccco1)C1CCCN(S(=O)(=O)c2cccc3nonc23)C1 (stereo not given) |  | inactive | 
13 | COCCn1c(C)cc(-c2csc(N)n2)c1C |  |  | activity change, negative = inhibition (at 38 µM (top of the series)): inactive
14 | CC(=O)Nc1ccc(Nc2nc(-c3nnc(-c4cccc(C)c4)o3)nc3ccccc23)cc1 |  | inactive | 
15 | Cc1c(C(=O)OCC2CCCO2)[nH]c2c1C(=O)CC(c1ccco1)C2 (stereo not given) | > 160 µM (inactive) |  | 
16 | N#Cc1c2ccc(OCC(=O)NCc3ccco3)cc2n2ccccc12 |  | inactive | 
17 | O=S(=O)(Nc1nc2ccccc2nc1NCc1ccco1)c1ccccc1 |  | inactive | 
18 | Cc1cnc(C)c(N2CCN(C(=O)[C@H]3CC[C@@H](N)C3)CC2)n1 |  | inactive | 
19 | CC(=O)c1cccc(OCC(=O)N(C)CC(=O)NCc2ccco2)c1 | 82.2 µM |  | 
20 | Cc1cc(C)c2c(N)c(C(=O)Nc3cccc4ccccc34)sc2n1 |  | inactive | 

Row | Structure (SMILES) | AC50 | activity change, negative = inhibition (at 80 µM (top of the series)) | also measured
21 | COc1cccc(NC(=O)CN(C)C(=O)c2cc3c(s2)CCC3)c1 | 50.6 µM |  | 
22 | O=C(O)c1ccccc1SC1CC(=O)N(Cc2ccccc2)C1=O (stereo not given) |  | inactive | 
23 | N#Cc1c(N)oc(-c2ccco2)c1-c1ccco1 | > 160 µM (inactive) |  | 
24 | Cc1ccc(N2C(=O)c3ccccc3C2C(=O)c2ccc(O)cc2O)cc1 (stereo not given) |  | inactive | 
25 | Cc1ccc(-c2cc(C(=O)Nc3ccccn3)c3ccccc3n2)o1 |  | inactive | 
26 | O=C(COc1cccnc1[N+](=O)[O-])c1ccc(Cl)s1 |  | inactive | 
27 | CCC1c2ccc(C)n2CCN1C(=O)Nc1ccccc1C(=O)OC (stereo not given) |  | inactive | 
28 | Cc1ccccc1C(=O)Nc1cnc(N2CCC(C(N)=O)(N3CCCCC3)CC2)c(C(=O)O)c1 | 7.55 µM |  | 
29 | N#Cc1c(-c2ccco2)cc(-c2ccccn2)nc1N |  | inactive | 
30 | C(=C\c1ccco1)/c1nc2ccccc2[nH]1 |  | inactive | 
31 | COC[C@]1(O)CCN(C(=O)CCN(C)S(C)(=O)=O)CC1(C)C |  | inactive | 
32 | O=C(CCc1nc(-c2ccccc2)no1)NCC1CNCCOC1 (stereo not given) |  | inactive | 
33 | Nc1cc2c(cc1-n1cccc1)OCCO2 |  | inactive | 
34 | N#Cc1c(NC(=O)CSc2nc3ccccc3o2)sc2c1CCC2 |  | inactive | 
35 | Cc1ccc(-c2nn(-c3ccccc3)cc2CN(Cc2ccccc2)C(=O)CCC(=O)O)o1 |  | inactive | 
36 | Cc1ccc(C2CC(=O)C3=C(C2)Nc2ccccc2NC3c2cccnc2)cc1 (stereo not given) |  | inactive | 
37 | O=[N+]([O-])c1c(NCCCO)cc(SCc2ccco2)c2nonc12 |  | inactive | 
38 | Cc1ccc(-c2nnc(-c3nc(Nc4nc5ccccc5s4)c4ccccc4n3)o2)cc1 | 42.1 µM |  | 
39 | COc1ccc(S(=O)(=O)N2CCOCC2)cc1NC(=O)c1cccc(-n2cccc2)c1 | 77.6 µM |  | 
40 | C[n+]1cccc2cccc(O)c21 |  | inactive | 

Row | Structure (SMILES) | AC50 | activity change, negative = inhibition (at 80 µM (top of the series)) | also measured
41 | O=S(=O)(c1ccc2nc(-c3ccco3)c(-c3ccco3)nc2c1)N1CCOCC1 | > 160 µM (inactive) |  | 
42 | CN(Cc1ccco1)S(=O)(=O)c1nnc(NC(=O)c2ccccc2)s1 |  | inactive | 
43 | O=C(NCc1ccco1)[C@@H]1CSC2c3ccccc3C(=O)N21 (stereo not given in full) |  | inactive | 
44 | O=C(COC(=O)c1cc(-c2cccs2)nc2ccccc12)NCc1ccco1 |  | inactive | 
45 | O=C(Nc1nc(-c2ccccn2)cs1)c1cccc(-n2cnnn2)c1 | 77.9 µM |  | 
46 | CC1(C)Cc2ccccc2-c2nc(-c3ccccc3)oc(=O)c21 |  | inactive | 
47 | COc1ccc(S(=O)(=O)Nc2ccc3c(c2)C(=O)N([C@H](C)CO)C[C@H](C)[C@@H](CN(C)CC2CCCCC2)OCCCC[C@H](C)O3)cc1 | > 160 µM (inactive) |  | 
48 | NC(=O)c1ccc(CN2C(=O)C3(CCNCC3)Nc3ccccc32)cc1 | > 160 µM (inactive) |  | 
49 | O=C1C=C(c2ccccc2)Nc2ccccc2N1 | > 160 µM (inactive) |  | 
50 | c1coc(-c2cn3ccc4ccccc4c3n2)c1 |  | inactive | 
51 | Cc1noc(C)c1S(=O)(=O)Nc1ccc2c(c1)C(=O)N([C@H](C)CO)C[C@H](C)[C@@H](CN(C)C(=O)C1CCCCC1)OCCCC[C@H](C)O2 | > 160 µM (inactive) |  | 
52 | Clc1ccc2nc(CN3CCCCCC3)cn2c1 |  | inactive | 
53 | NC(=O)C1(N2CCCCC2)CCN(c2ccc(NC(=O)c3ccccc3F)cc2C(=O)O)CC1 | 42 µM |  | 
54 | Cc1ccc2c(c1)C(N1CCCC1=O)CC(c1ccco1)N2 (stereo not given) |  | inactive | 
55 | O=C(NCc1cccnc1)c1ccccc1-c1nc(-c2ccccc2)no1 | > 160 µM (inactive) |  | 
56 | O=C1CS/C(=N\N=C\c2ccco2)N1c1ccccc1 |  | inactive | 
57 | O=C(Nc1nnc(-c2ccco2)s1)c1ccccc1 |  | inactive | 
58 | O=C(CCN1CCOCC1)c1ccc2c(c1)OCCO2 |  | inactive | 
59 | CCN1CCOC(=O)C1CC(=O)Nc1cccc(C)c1 (stereo not given) |  | inactive | 
60 | CC(=O)c1ccc(NC(=O)c2noc3c2CCC3)cc1 | > 160 µM (inactive) |  | 
